Assay results as given in US12319684B2 (Sanford Burnham Prebys Medical Discovery Institute, priority 2014, dated 2025).
Like-named read-outs stand apart in the source and are kept apart here.

Biological target: T1, human apelin receptor (APJ, AGTRL-1, APLNR) (Homo sapiens, UniProt P35414)
T1 construct: host or cells: Chinese hamster ovary cells
T1 sequence (P35414 1-380): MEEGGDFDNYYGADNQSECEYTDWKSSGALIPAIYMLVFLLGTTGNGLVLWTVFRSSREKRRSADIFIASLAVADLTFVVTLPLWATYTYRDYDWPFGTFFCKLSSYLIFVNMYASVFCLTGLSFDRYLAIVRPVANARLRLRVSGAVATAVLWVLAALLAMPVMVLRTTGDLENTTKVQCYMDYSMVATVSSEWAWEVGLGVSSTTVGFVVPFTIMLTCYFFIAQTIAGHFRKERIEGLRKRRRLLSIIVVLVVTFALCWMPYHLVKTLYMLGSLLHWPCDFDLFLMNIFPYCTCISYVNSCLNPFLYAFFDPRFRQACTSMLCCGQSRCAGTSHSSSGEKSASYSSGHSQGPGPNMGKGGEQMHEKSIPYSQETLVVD
Experiment: APJ cAMP cell-based assay (forskolin-stimulated CHO cells, enzyme fragment complementation)
Details: for EC50: CHO cells expressing human APJ, forskolin-stimulated, 0.5 h incubation, 50% of control (apelin-13, 1 nM) response, read-out: APJ cAMP EC50; for Emax: CHO, 0.5 h, read-out: APJ cAMP % resp (efficacy)
Method: The assays disclosed herein were performed using cell lines from DiscoveRx, Inc.
Biological activity was determined in a cell-based assay. This assay detects activation of the receptor by reporting on intracellular cyclic adenosine monophosphate (cAMP) level. Chinese hamster ovary cells engineered to express a stably integrated human apelin receptor (APJ, AGTRL-1, APLNR), were plated into the wells of a microtiter plate. Cells were stimulated with forskolin to increase intracellular cAMP. Immediately following, compounds were added at a range of final concentrations 0.0-100 μM, in DMSO (not to exceed a final DMSO concentration of >1% v/v), and allowed to incubate with the cells for 0.5 h. At the end of the incubation, cells were lysed to stop APJ signaling, and cAMP was quantified using a commercially available assay kit that applies enzyme fragment complementation technology and bioluminescence, in a competitive ELISA format.
Compound efficacy (% resp) is reported as a percentage of the maximal apelin-13 response at 1 nM (control).

[1] = percentage of the maximal apelin-13 response at 1 nM (control)

SMILES | EC50 [nM] | Emax [1] [%] | Emax [%]
COc1ccccc1-n1c(SCc2cc(=O)n3cc(C)ccc3n2)nnc1-c1ccco1 [Example 2, 2-[5-Furan-2-yl-4-(2-methoxy-phenyl)-4H-[1,2,4]triazol-3-ylsulfanylmethyl]-7-methyl-pyrido[1,2-a]pyrimidin-4-one] | 310 | 154 | –
COc1ccccc1-n1c(SCc2cc(=O)n3cc(C)ccc3n2)nnc1-c1ccccc1 [Example 3, 2-[4-(2-Methoxy-phenyl)-5-phenyl-4H-[1,2,4]triazol-3-ylsulfanylmethyl]-7-methyl-pyrido[1,2-a]pyrimidin-4-one] | 6160 | 136 | –
COc1ccccc1-n1c(SCc2cc(=O)n3cc(C)ccc3n2)nnc1-c1ccncc1 [Example 4, 2-[4-(2-Methoxy-phenyl)-5-pyridin-4-yl-4H-[1,2,4]triazol-3-ylsulfanylmethyl]-7-methyl-pyrido[1,2-a]pyrimidin-4-one] | 3090 | 80 | –
COc1ccccc1-n1c(SCc2cc(=O)n3cc(C)ccc3n2)nnc1-c1ccc(C)cc1 [Example 5, 2-[4-(2-Methoxy-phenyl)-5-p-tolyl-4H-[1,2,4]triazol-3-ylsulfanylmethyl]-7-methyl-pyrido[1,2-a]pyrimidin-4-one] | 1510 | 126 | –
COc1ccccc1-n1c(SCc2cc(=O)n3cc(C)ccc3n2)nnc1-c1ccc(N(C)C)cc1 [Example 6, 2-[5-(4-Dimethylamino-phenyl)-4-(2-methoxy-phenyl)-4H-[1,2,4]triazol-3-ylsulfanylmethyl]-7-methyl-pyrido[1,2-a]pyrimidin-4-one] | 13600 | 176 | –
COc1ccccc1-n1c(SCc2cc(=O)n3cc(C)ccc3n2)nnc1-c1ccc([N+](=O)[O-])cc1 [Example 7, 2-[4-(2-Methoxy-phenyl)-5-(4-nitro-phenyl)-4H-[1,2,4]triazol-3-ylsulfanylmethyl]-7-methyl-pyrido[1,2-a]pyrimidin-4-one] | 6630 | 51 | –
COc1ccccc1-n1c(SCc2cc(=O)n3cc(C)ccc3n2)nnc1-c1ccc(Br)s1 [Example 8, 2-[5-(5-Bromo-thiophen-2-yl)-4-(2-methoxy-phenyl)-4H-[1,2,4]triazol-3-ylsulfanylmethyl]-7-methyl-pyrido[1,2-a]pyrimidin-4-one] | 551 | 137 | –
COc1ccccc1-n1c(SCc2cc(=O)n3cc(C)ccc3n2)nnc1-c1ccc(Cl)s1 [Example 9, 2-[5-(5-Chloro-thiophen-2-yl)-4-(2-methoxy-phenyl)-4H-[1,2,4]triazol-3-ylsulfanylmethyl]-7-methyl-pyrido[1,2-a]pyrimidin-4-one] | 455 | 136 | –
COc1ccccc1-n1c(SCc2cc(=O)n3cc(C)ccc3n2)nnc1-c1ccc(Br)o1 [Example 10, 2-[5-(5-Bromo-furan-2-yl)-4-(2-methoxy-phenyl)-4H-[1,2,4]triazol-3-ylsulfanylmethyl]-7-methyl-pyrido[1,2-a]pyrimidin-4-one] | 18.2 | 150 | –
COc1ccccc1-n1c(SCc2cc(=O)n3cc(C)ccc3n2)nnc1-c1ccc(C)s1 [Example 11, 2-[4-(2-Methoxy-phenyl)-5-(5-methyl-thiophen-2-yl)-4H-[1,2,4]triazol-3-ylsulfanylmethyl]-7-methyl-pyrido[1,2-a]pyrimidin-4-one] | 70.4 | 118 | –
COc1ccccc1-n1c(SCc2cc(=O)n3cc(C)ccc3n2)nnc1-c1sccc1C [Example 12, 2-[4-(2-Methoxy-phenyl)-5-(3-methyl-thiophen-2-yl)-4H-[1,2,4]triazol-3-ylsulfanylmethyl]-7-methyl-pyrido[1,2-a]pyrimidin-4-one] | 1490 | 89 | –
COc1ccccc1-n1c(SCc2cc(=O)n3cc(C)ccc3n2)nnc1-c1ccc(C#N)cc1 [Example 13, 4-[4-(2-Methoxy-phenyl)-5-(7-methyl-4-oxo-4H-pyrido[1,2-a]pyrimidin-2-ylmethylsulfanyl)-4H-[1,2,4]triazol-3-yl]-benzonitrile] | 1420 | 94 | –
COc1ccccc1-n1c(SCc2cc(=O)n3cc(C)ccc3n2)nnc1-c1nccs1 [Example 14, 2-[4-(2-Methoxy-phenyl)-5-thiazol-2-yl-4H-[1,2,4]triazol-3-ylsulfanylmethyl]-7-methyl-pyrido[1,2-a]pyrimidin-4-one] | 772 | 105 | –
COc1ccccc1-n1c(SCc2cc(=O)n3cc(C)ccc3n2)nnc1-c1ccc(C)o1 [Example 15, 2-[4-(2-Methoxy-phenyl)-5-(5-methyl-furan-2-yl)-4H-[1,2,4]triazol-3-ylsulfanylmethyl]-7-methyl-pyrido[1,2-a]pyrimidin-4-one] | 4.44 | 52 | –
COc1ccccc1-n1c(SCc2cc(=O)n3cc(C)ccc3n2)nnc1-c1ccoc1 [Example 16, 2-[5-Furan-3-yl-4-(2-methoxy-phenyl)-4H-[1,2,4]triazol-3-ylsulfanylmethyl]-7-methyl-pyrido[1,2-a]pyrimidin-4-one] | 96.8 | 84 | –
COc1ccccc1-n1c(SCc2cc(=O)n3cc(C)ccc3n2)nnc1-c1ccsc1 [Example 17, 2-[4-(2-Methoxy-phenyl)-5-thiophen-3-yl-4H-[1,2,4]triazol-3-ylsulfanylmethyl]-7-methyl-pyrido[1,2-a]pyrimidin-4-one] | 90 | 109 | –
COc1ccccc1-n1c(SCc2cc(=O)n3cc(C)ccc3n2)nnc1-c1cccn1C [Example 18, 2-[4-(2-Methoxy-phenyl)-5-(1-methyl-1H-pyrrol-2-yl)-4H-[1,2,4]triazol-3-ylsulfanylmethyl]-7-methyl-pyrido[1,2-a]pyrimidin-4-one] | 1700 | 58 | –
COc1ccccc1-n1c(SCc2cc(=O)n3cc(C)ccc3n2)nnc1-c1nccn1C [Example 19, 2-[4-(2-Methoxy-phenyl)-5-(1-methyl-1H-imidazol-2-yl)-4H-[1,2,4]triazol-3-ylsulfanylmethyl]-7-methyl-pyrido[1,2-a]pyrimidin-4-one] | > 10000 | 57 | –
COc1ccc(-n2c(SCc3cc(=O)n4cc(C)ccc4n3)nnc2-c2cccs2)cc1 [Example 20, 2-[4-(4-Methoxy-phenyl)-5-thiophen-2-yl-4H-[1,2,4]triazol-3-ylsulfanylmethyl]-7-methyl-pyrido[1,2-a]pyrimidin-4-one] | 5000 | – | 10
Cc1cccc(-n2c(SCc3cc(=O)n4cc(C)ccc4n3)nnc2-c2cccs2)c1 [Example 21, 7-Methyl-2-(5-thiophen-2-yl-4-m-tolyl-4H-[1,2,4]triazol-3-ylsulfanylmethyl)-pyrido[1,2-a]pyrimidin-4-one] | 2370 | 113 | –
COc1cccc(-n2c(SCc3cc(=O)n4cc(C)ccc4n3)nnc2-c2cccs2)c1 [Example 22, 2-[4-(3-Methoxy-phenyl)-5-thiophen-2-yl-4H-[1,2,4]triazol-3-ylsulfanylmethyl]-7-methyl-pyrido[1,2-a]pyrimidin-4-one] | 1240 | 134 | –
Cc1ccc2nc(CSc3nnc(-c4cccs4)n3-c3ccccc3C)cc(=O)n2c1 [Example 23, 7-Methyl-2-(5-thiophen-2-yl-4-o-tolyl-4H-[1,2,4]triazol-3-ylsulfanylmethyl)-pyrido[1,2-a]pyrimidin-4-one] | 179 | 109 | –
